Test results published in PubChem BioAssay AID248 (DTP/NCI, 2004).
“And” between values parts separate entries of the source, which are not always exact repeats. Identical values can stand only once. Toxic doses and inconclusive results are not listed. Rule as the data show it: active = T/C of 150% or more; inactive = T/C below 125%.

Test system: L1210 leukemia ip in BDF1 mice, survival T/C
Experiment: NCI In Vivo Anticancer Drug Screen. Data for tumor model L1210 Leukemia (intraperitoneal) in B6D2F1 (BDF1) mice
Settings: endpoint: mean survival time, higher = longer survival
Procedure, shortened: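 Mice bearing the transplanted tumor received compound or vehicle. Survival of the treated group was divided by that of the vehicle-treated control group to give the ratio.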

[1] = dose: 100.0 mg/kg/injection, schedule: Q04DX003 (ip), vehicle: Klucel (hydroxypropylcellulose) (HPC)
[2] = dose: 200.0 mg/kg/injection, schedule: Q04DX003 (ip), vehicle: Klucel (hydroxypropylcellulose) (HPC)
[3] = dose: 400.0 mg/kg/injection, schedule: Q04DX003 (ip), vehicle: Klucel (hydroxypropylcellulose) (HPC)
[4] = dose: 100.0 mg/kg/injection, schedule: Q04DX002 (ip), vehicle: saline with Tween-80
[5] = dose: 200.0 mg/kg/injection, schedule: Q04DX002 (ip), vehicle: saline with Tween-80
[6] = dose: 400.0 mg/kg/injection, schedule: Q04DX002 (ip), vehicle: saline with Tween-80
[7] = dose: 100.0 mg/kg/injection, schedule: Q01DX001 (ip), vehicle: saline
[8] = dose: 200.0 mg/kg/injection, schedule: Q01DX001 (ip), vehicle: saline
[9] = dose: 400.0 mg/kg/injection, schedule: Q01DX001 (ip), vehicle: saline
[10] = dose: 100.0 mg/kg/injection, schedule: Q01DX009 (ip), vehicle: Klucel (hydroxypropylcellulose) (HPC)
[11] = dose: 200.0 mg/kg/injection, schedule: Q01DX009 (ip), vehicle: Klucel (hydroxypropylcellulose) (HPC)
[12] = dose: 100.0 mg/kg/injection, schedule: Q04DX002 (ip), vehicle: Klucel (hydroxypropylcellulose) (HPC)
[13] = dose: 200.0 mg/kg/injection, schedule: Q04DX002 (ip), vehicle: Klucel (hydroxypropylcellulose) (HPC)
[14] = dose: 400.0 mg/kg/injection, schedule: Q01DX009 (ip), vehicle: Klucel (hydroxypropylcellulose) (HPC)
[15] = dose: 100.0 mg/kg/injection, schedule: Q01DX009 (ip), vehicle: saline
[16] = dose: 200.0 mg/kg/injection, schedule: Q01DX009 (ip), vehicle: saline

Measured: T/C

N#Cc1nc(/C=C\c2ccc3c(c2)OCO3)cnc1N
inactive: dose: 100.0 mg/kg/injection, schedule: Q01DX001 (ip), vehicle: Klucel (hydroxypropylcellulose) (HPC) 106 % of control | dose: 200.0 mg/kg/injection, schedule: Q01DX001 (ip), vehicle: Klucel (hydroxypropylcellulose) (HPC) 95 % of control | dose: 400.0 mg/kg/injection, schedule: Q01DX001 (ip), vehicle: Klucel (hydroxypropylcellulose) (HPC) 89 % of control

CN(C)c1ccc(/C=C(/NC(=O)c2ccccc2)C(N)=O)cc1
inactive: [1] 94 % of control | [2] 96 % of control | [3] 94 % of control

Cc1c2oc3c(C)ccc(C(=O)OCCN4CCN(c5ccccc5)CC4)c3nc-2c(C(=O)OCCN2CCN(c3ccccc3)CC2)c(N)c1=O
inactive: [4] 92 % of control | [5] 103 % of control | [6] 103 % of control

O=[N+]([O-])OCc1c(Cl)nc(Cl)c(Cl)c1Cl
inactive: dose: 20.0 mg/kg/injection, schedule: Q01DX009 (ip), vehicle: Klucel (hydroxypropylcellulose) (HPC) 103 % of control | dose: 40.0 mg/kg/injection, schedule: Q01DX009 (ip), vehicle: Klucel (hydroxypropylcellulose) (HPC) 92 % of control | [1] 92 % of control | [2] 100 % of control

O=C(Nc1ccc([N+](=O)[O-])cc1Br)c1ccc(C(=O)Nc2ccc([N+](=O)[O-])cc2Br)cc1
inactive: [7] 97 % of control | [8] 105 % of control | [9] 103 % of control

O=P(c1ccccc1)(N1CC1)N1CC1
inactive: dose: 7.5 mg/kg/injection, schedule: Q04DX003 (ip), vehicle: saline 100 % of control | dose: 15.0 mg/kg/injection, schedule: Q01DX001 (ip), vehicle: saline 102 % of control | dose: 15.0 mg/kg/injection, schedule: Q04DX003 (ip), vehicle: saline 95 % of control | dose: 30.0 mg/kg/injection, schedule: Q01DX001 (ip), vehicle: saline 107 % of control | dose: 30.0 mg/kg/injection, schedule: Q04DX003 (ip), vehicle: saline 98 % of control

Oc1ccc(/C=N\Nc2ccccn2)c(O)c1
inactive: [10] 88 % of control | [11] 91 % of control

C1SCC12CSC2
inactive: dose: 6.25 mg/kg/injection, schedule: Q01DX001 (ip), vehicle: saline with Tween-80 93 % of control | dose: 12.5 mg/kg/injection, schedule: Q01DX001 (ip), vehicle: saline with Tween-80 96 % of control | dose: 25.0 mg/kg/injection, schedule: Q01DX001 (ip), vehicle: saline with Tween-80 104 % of control

Cc1ccc(N(Cc2ccccc2)Cc2ccccc2)cc1
inactive: dose: 75.0 mg/kg/injection, schedule: Q01DX009 (ip), vehicle: other 103 % of control | dose: 100.0 mg/kg/injection, schedule: Q04DX002 (ip), vehicle: other 105 % of control | dose: 150.0 mg/kg/injection, schedule: Q01DX009 (ip), vehicle: other 106 % of control | dose: 200.0 mg/kg/injection, schedule: Q04DX002 (ip), vehicle: other 97 % of control | dose: 300.0 mg/kg/injection, schedule: Q01DX009 (ip), vehicle: other 98 % of control | dose: 400.0 mg/kg/injection, schedule: Q04DX002 (ip), vehicle: other 97 % of control

CC(=O)[O][Pb]([O]C(C)=O)([O]C(C)=O)[c]1ccccc1
inactive: dose: 6.25 mg/kg/injection, schedule: Q01DX009 (ip), vehicle: gum acacia 102 % of control | dose: 12.5 mg/kg/injection, schedule: Q01DX009 (ip), vehicle: gum acacia 98 % of control | dose: 25.0 mg/kg/injection, schedule: Q01DX009 (ip), vehicle: gum acacia 95 % of control | dose: 50.0 mg/kg/injection, schedule: Q01DX009 (ip), vehicle: gum acacia 103 % of control | [7] 97 % of control | dose: 100.0 mg/kg/injection, schedule: Q04DX002 (ip), vehicle: gum acacia 107 % of control | [8] 103 % of control | dose: 200.0 mg/kg/injection, schedule: Q04DX002 (ip), vehicle: gum acacia 103 % of control

CC(c1ccccc1)C1CCCCC1 (centres undefined)
inactive: dose: 100.0 mg/kg/injection, schedule: Q01DX001 (ip), vehicle: saline with Tween-80 96 % of control | dose: 200.0 mg/kg/injection, schedule: Q01DX001 (ip), vehicle: saline with Tween-80 96 % of control | dose: 400.0 mg/kg/injection, schedule: Q01DX001 (ip), vehicle: saline with Tween-80 91 % of control

CN(C)P1(=O)NCCCO1 (centres undefined)
inactive: [7] 100 % of control | [8] 110 % of control | [9] 109 % of control

COC(=O)C(=Cc1ccccc1)C(=O)OC
inactive: [12] 95 % of control | [13] 95 % of control | dose: 400.0 mg/kg/injection, schedule: Q04DX002 (ip), vehicle: Klucel (hydroxypropylcellulose) (HPC) 92 % of control

CCCCC(CC)C(O)C(C)C(C)O (centres undefined)
inactive: [10] 97 % of control | [1] 101 % of control | [11] 102 % of control | [2] 98 % of control | [14] 100 % of control | [3] 95 % of control

O=C1C=Cc2ccccc2/C1=C/c1nc(-c2ccc(Cl)cc2)oc1O
inactive: [12] 95 % of control | [13] 91 % of control

CC(C)(C)NC(=O)Nc1ccc(O)cc1
inactive: dose: 100.0 mg/kg/injection, schedule: Q01DX009 (ip), vehicle: saline with Tween-80 112 % of control and 91 % of control | [4] 94 % of control and 100 % of control | dose: 100.0 mg/kg/injection, schedule: Q04DX003 (ip), vehicle: saline with Tween-80 95 % of control | dose: 200.0 mg/kg/injection, schedule: Q01DX009 (ip), vehicle: saline with Tween-80 100 % of control and 102 % of control | [5] 94 % of control and 100 % of control | dose: 200.0 mg/kg/injection, schedule: Q04DX003 (ip), vehicle: saline with Tween-80 113 % of control | dose: 400.0 mg/kg/injection, schedule: Q01DX009 (ip), vehicle: saline with Tween-80 120 % of control | [6] 100 % of control and 101 % of control | dose: 400.0 mg/kg/injection, schedule: Q04DX003 (ip), vehicle: saline with Tween-80 105 % of control

CCOC(=O)NCC[N+](C)(C)C
inactive: dose: 6.25 mg/kg/injection, schedule: Q01DX009 (ip), vehicle: saline 94 % of control | dose: 12.5 mg/kg/injection, schedule: Q01DX009 (ip), vehicle: saline 100 % of control | dose: 25.0 mg/kg/injection, schedule: Q01DX009 (ip), vehicle: saline 102 % of control

COC(=O)Cn1nnc2ccccc21
inactive: dose: 50.0 mg/kg/injection, schedule: Q01DX009 (ip), vehicle: saline 97 % of control | [15] 105 % of control | [16] 87 % of control

CC1CCC2(CC1=O)C(C)CC(=O)C2C(C)C (centres undefined)
inactive: [15] 94 % of control | [16] 102 % of control | dose: 400.0 mg/kg/injection, schedule: Q01DX009 (ip), vehicle: saline 98 % of control

COc1cccc(OC)c1OC(=O)Nc1cccc(C(F)(F)F)c1
inactive: [10] 101 % of control | [11] 98 % of control | [14] 90 % of control

CC(C)NC(=O)C1C2CC3OC(=O)C1C3C2 (centres undefined)
inactive: dose: 100.0 mg/kg/injection, schedule: Q04DX003 (ip), vehicle: saline 98 % of control | dose: 200.0 mg/kg/injection, schedule: Q04DX003 (ip), vehicle: saline 98 % of control and 88 % of control | dose: 400.0 mg/kg/injection, schedule: Q04DX003 (ip), vehicle: saline 101 % of control and 95 % of control

COc1ccc(C(=O)N(C)c2ccccc2)cc1
inactive: [1] 94 % of control | [2] 89 % of control | [3] 93 % of control
